Laboratory results published in patent US20030008358A1, “Method of producing L-serine by fermentation” (AJINOMOTO CO. INC, priority 1998, published 2003).

Key:
[1] = test system: Brevibacterium flavum AJ13325; experiment: Growth of β-(2-thienyl)-DL-alanine resistant strains in the presence of β-(2-thienyl)-DL-alanine; format: cell-based; conditions: 0.25 g/L of β-(2-thienyl)-DL-alanine
Method: Similarly, the term “β-(2-thienyl)-DL-alanine resistance” refers to the property that a bacterium grows faster than the wild type in a medium containing β-(2-thienyl)-DL-alanine. For example, those strains that form colonies on a solid medium containing 0.25 g/L of β-(2-thienyl)-DL-alanine at 30° C. within 4 to 5 days are said to have β-(2-thienyl)-DL-alanine resistance.
To select B-(2-thienyl)-DL-alanine resistant strains from NG treated strains using Brevibacterium flavum AJ13377 as a parent strain, Brevibacterium flavum AJ13377 cells were NG treated and washed before their inoculation on a minimal medium for selection. The minimal medium for selection was a medium that contained 20 g of glucose, 1 g of ammonium sulfate, 1 g of potassium dihydrogen phosphate, 2.5 g of urea, 0.4 g of magnesium sulfate heptahydrate, 0.01 g of iron (II) sulfate heptahydrate, 0.01 g of manganese sulfate tetra- to pentahydrate, 50 μg of biotin, 200 μg of thiamin hydrochloride, 200 μg of nicotinic acid amide, and 250 mg of β-(2-thienyl)-DL-alanine per liter of distilled water. The NG treated mutant was incubated in the above-described medium at 30° C. for 5 to 10 days. The cell culture thus obtained was spread on a bouillon agar medium and incubated at 30° C. for 24 hours for colony formation. β-(2-Thienyl)-DL-alanine resistant strains were obtained from the strains that formed colonies. […]

[2] = test system: 3-PGDH derived from AJ13327 strain; experiment: Feedback inhibition of 3-PGDH from AJ13327 by L-serine; format: biochemical, Brevibacterium flavum
Method: (§1) The activity of 3-PGDH can be determined, for example, by the measurement of a decrease in coenzyme NADH2 in a reverse reaction (E. Sugimoto and L. I. Pizer, JBC, 243, 2081, 1968) or synthesis of coenzyme NADH2 in a forward reaction (Salach H. J. Method in Enzymology, vol.9, 216-220, 1966) by absorbance at 340 nm.
(§2) Brevibacterium flavum AJ13324, AJ13325 and AJ13327 were each incubated on a bouillon agar medium at 30° C. for 24 hours and a loopful of each microorganism was inoculated in a 500 ml shaking flask containing 50 ml of a fermentation medium having the composition shown in Table 2. As a control, the parent strains Brevibacterium flavum ATCC 14067 and AJ13377 were inoculated as a same manner as described above. The medium for inoculation was adjusted to pH 5.5 with sodium hydroxide and autoclaved at 115° C. for 15 minutes.
After collecting cells from the culture broth of each strain, the cells were washed twice with physiological saline and suspended in 50 mM sodium phosphate buffer (pH 7.0) containing 2 mM dithiothreitol. After ice cooling, the suspension was subjected to a sonicator to fragment the cells and the resulting liquid was ultracentrifuged. The ultracentrifugaton was run at 45,000 rpm for 1 hour to obtain a crude enzyme solution.
(§3) The enzyme activity of 3-PGDH was measured by the method of Salach H. J. et al. (Method in Enzymology, vol 9, 216-220 (1966)).
[…] Then, 0.2 ml of the crude enzyme solution was added and the temperature was kept the same for 5 minutes. Thereafter, 0.5 ml of 0.1 M 3-PGA (3-phosphoglycerate disodium salt, pH 7, NaOH) was added. After stirring, the absorbance at 340 nm of the reaction mixture was measured for 30 seconds. The reaction was carried out at 25° C.
For the measurement of activity, Hitachi U-2000A spectrophotometer was used.

[3] = test system: 3-PGDH derived from AJ13324 strain; experiment: Feedback inhibition of 3-PGDH from AJ13324 by L-serine; format: biochemical, Brevibacterium flavum; conditions: crude enzyme solution; FIG. 1
Method: as §1
as §2, with “minutes. […]” for “minutes.”
as §3
(§4) More specifically, 0.4 ml of 0.015 M NAD, 0.12 ml of 0.25 M EDTA (pH 9, NaOH), 0.1 ml of 0.05 M glutathione (pH 6, KOH), 0.5 ml of 1 M hydrazine (pH 9, acetate), 0.6 ml of 1 M Tris (pH 9, HCl), a suitable concentration of L-serine (0 to 40 mM), and water to make 2.3 ml, warmed to 25° C. in advance, were added. […] After stirring, the absorbance at 340 nm of the reaction mixture was measured for 30 seconds. […]

[4] = test system: 3-PGDH derived from ATCC14067 strain (wild type); experiment: Feedback inhibition of wild type 3-PGDH by L-serine; format: biochemical, Brevibacterium flavum; conditions: wild type coryneform bacterium 3-PGDH; 10 mM L-serine
Method: as §1
as §2, with “minutes. […]” for “minutes.”
as §3, §4

[5] = test system: 3-PGDH derived from AJ13377 strain; experiment: Feedback inhibition of 3-PGDH from AJ13377 by L-serine; format: biochemical, Brevibacterium flavum; conditions: crude enzyme solution; compared with wild type strain ATCC 14067; FIG. 1
Method: as §1
as §2, with “minutes. […]” for “minutes.”
as §3, §4

[6] = test system: Brevibacterium flavum AJ13324 and AJ13327; experiment: Growth of azaserine resistant strains in the presence of azaserine; format: cell-based; conditions: 0.25 g/L of azaserine
Method: The term “azaserine resistance” refers to the property that a bacterium grows faster than the wild type in a medium containing azaserine. For example, those strains that form colonies on a solid medium containing 0.25 g/L of azaserine at 30° C. within 4 to 5 days are said to have azaserine resistance.
To select azaserine resistant strains from NG treated strains using Brevibacterium flavum AJ13377 as a parent strain, NG treated Brevibacterium flavum AJ13377 cells after washed were inoculated on a minimal medium for selection. The minimal medium for selection was a medium that contained 20 g of glucose, 1 g of ammonium sulfate, 1 g of potassium dihydrogen phosphate, 2.5 g of urea, 0.4 g of magnesium sulfate heptahydrate, 0.01 g of iron (II) sulfate heptahydrate, 0.01 g of manganese sulfate tetra- to pentahydrate, 50 μg of biotin, 200 μg of thiamin hydrochloride, 200 μg of nicotinic acid amide, and 250 mg of azaserine per liter of distilled water. The NG treated mutant was incubated in the above-described medium at 30° C. for 5 to 10 days. The cell culture thus obtained was spread on a bouillon agar medium and incubated at 30° C. for 24 hours for colony formation. Azaserine resistant strains were obtained from the strains that formed colonies. The mutants thus obtained included many strains that accumulated L-serine in considerable amounts at high yields. […]

NC(Cc1cccs1)C(=O)O (racemic) [β-(2-thienyl)-DL-alanine] was tested, and the “growth in the presence of β-(2-thienyl)-DL-alanine” value [1] was “able to grow”.

For N[C@@H](CO)C(=O)O [L-serine], the “3-PGDH activity retained in the presence of L-serine (relative to absence of L-serine)” value ([2]; 80 mM L-serine) was roughly 100%, the “feedback inhibition of 3-PGDH by L-serine” value ([2]; 80 mM L-serine, FIG. 1) was “completely desensitized” and the “L-serine sensitivity of 3-PGDH” value ([2]; crude enzyme solution, FIG. 1) was “relieved of L-serine sensitivity greatly”. For the same molecule, the “L-serine sensitivity of 3-PGDH” value [3] was “more relieved of L-serine sensitivity”, the “3-PGDH activity in the presence of L-serine” value [4] was “almost completely inhibited” and the “L-serine sensitivity of 3-PGDH” value [5] was “relieved of L-serine sensitivity”.

With [N-]=[N+]=CC(=O)OC[C@H](N)C(=O)O [azaserine] the “growth in the presence of azaserine” value [6] was “able to grow”.
